Numbering of substitutions follows the chain as printed. Read-outs that look alike come from different tables or passages of the source.
Assays:
human M1 = target: T1, human M1 (Homo sapiens, UniProt P11229); assay: M1 PAM assay (FLIPR intracellular calcium), human M1; assay type: cell-based
T1 construct: expressed in transfected cells; host or cells: CHO cells
T1 sequence (P11229 1-460): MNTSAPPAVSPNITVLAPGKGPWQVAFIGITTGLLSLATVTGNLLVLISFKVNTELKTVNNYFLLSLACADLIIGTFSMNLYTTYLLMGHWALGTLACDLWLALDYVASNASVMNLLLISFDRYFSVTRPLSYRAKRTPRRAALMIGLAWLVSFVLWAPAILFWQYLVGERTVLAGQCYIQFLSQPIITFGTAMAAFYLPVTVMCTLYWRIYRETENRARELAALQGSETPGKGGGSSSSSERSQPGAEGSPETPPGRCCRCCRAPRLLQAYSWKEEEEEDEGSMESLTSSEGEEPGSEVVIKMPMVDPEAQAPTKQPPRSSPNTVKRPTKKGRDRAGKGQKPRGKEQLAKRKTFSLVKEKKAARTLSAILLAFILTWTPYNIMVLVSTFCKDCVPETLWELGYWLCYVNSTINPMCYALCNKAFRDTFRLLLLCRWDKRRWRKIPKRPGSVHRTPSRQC
Method: The assay study the effect of several concentrations of test compounds on basal or acetylcholine-stimulated Ca^2+ levels using FLIPR.
CHO human M1 are plated the day before the experiments at 2×10^5 cells/ml in PDL BioCoat 96 well black/clear plate (Becton 35 4640). The cells are grown at 37° C. and 5% CO2 in the following medium: F12 Nut Mix (Gibco 21765), 10% FCS heat inactivated (GIBCO 16000-044), 1% Pen Strep (Gibco,15140) and 200 μg/ml Geneticin (Gibco 11811). On the day of the experiment, the medium was removed and replaced by […] of dye loading buffer containing Hanks Balanced Salt solution (HBSS, 14065-049, Gibco) with 20 mM HEPES (Gibco 15630-056), 2 mM Probenicid (Sigma P8761), […] ester (Molecular Probes F-14202), 10% Pluronic acid Molecular Probes P-3000) pH=7.4 and incubated at 37° C. After 60 minutes extracellular dye was removed and the cells were washed five times with FLIPR buffer containing HBSS (Gibco 14065-049) with 20 mM HEPES (Gibco, 15630-056), 2 mM Probenicid (Sigma P8761) pre-warmed at 37° C. using and Ebml cell washer leaving […] of FLIPR buffer in each well. The cell plate and the diluted compounds (1% DMSO final concentration) are placed on the platform of the FLIPR and the door closed. A signal test to check background fluorescence and basal fluorescence signal is performed. Laser intensity is adjusted if necessary. Two minutes preincubation with the diluted test compounds is provide to determine any agonist activity on the M1 receptor by comparison to 30 nM Acetylcholine control. In order to determine any modulator activity the diluted compounds were added to cells and after two minutes preincubation, the EC20 of acetylcholine is added followed by another two minutes preincubation before the measurement of intracellular Ca^2+ with a FLIPR (Molecular Devices).

ratM1 = target: T2, ratM1 (Rattus norvegicus, UniProt P08482); assay: M1 PAM assay (FLIPR intracellular calcium), rat M1; assay type: cell-based
T2 construct: expressed in transfected cells; host or cells: CHO cells (stated generally for the assay, not specifically for rat M1)
T2 sequence (P08482 1-460): T1 sequence (P11229 1-460) with A5V, T254S, P309S, R320K, A337G, I413V

[1] = CHO human M1 cells, FLIPR Ca2+, with EC20 of acetylcholine, first value of the cell, read-out: hM1 EC50
[2] = rat M1, FLIPR Ca2+, second value of the cell, read-out: ratM1 EC50

| Structure (SMILES) | EC50 (human M1; [1]) [nM] | EC50 (ratM1; [2]) [nM] | EC50 (human M1) [nM] | EC50 (ratM1) [nM] |
| --- | --- | --- | --- | --- |
| Cn1cc(-c2ccc(Cn3nc(C(=O)N[C@H]4CCOC[C@@H]4O)c4c(F)ccc(F)c43)cn2)cn1 [Example 74, 4,7-difluoro-N-((3R,4S)-3-hydroxytetrahydro-2H-pyran-4-yl)-1-((6-(1-methyl-1H-pyrazol-4-yl)yridine-3-yl)methyl)-1H-indazole-3-carboxamide] | 54.8 | 48.9 |  |  |
| CNC(=O)c1ccc(Cn2cc(C(=O)NC3(C)CCOCC3)c3c(F)cccc32)cc1 [Example 123, 4-fluoro-1-[[4-(methylcarbamoyl)phenyl]methyl]-N-(4-methyloxan-4-yl)indole-3-carboxamide] | 364 | 680 |  |  |
| Cn1cc(-c2ccc(Cn3cc(C(=O)NCC4COC4)c4c(F)cccc43)cc2)cn1 [Example 13, 4-fluoro-1-(4-(1-methyl-1H-pyrazol-4-yl)benzyl)-N-(oxetan-3-ylmethyl)-1H-indole-3-carboxamide] | 192 | 250 |  |  |
| O=C(NC1CCOCC1)c1cn(Cc2ccc(-c3nc[nH]n3)cc2)c2cccc(F)c12 [Example 157, 1-(4-(1H-1,2,4-triazol-3-yl)benzyl)-4-fluoro-N-(tetrahydro-2H-pyran-4-yl)-1H-indole-3-carboxamide] | 95 | 117 |  |  |
| CNC(=O)c1ccc(Cn2cc(C(=O)NC3CCOCC3)c3c(F)cccc32)cc1 [Example 132, 4-fluoro-1-(4-(methylcarbamoyl)benzyl)-N-(tetrahydro-2H-pyran-4-yl)-1H-indole-3-carboxamide] | 3 | 22 |  |  |
| O=C(N[C@H]1CCCC[C@@H]1O)c1cn(Cc2ccc(N3CCCC3)nc2)c2cccc(F)c12 [Example 162, 4-fluoro-N-((1S,2S)-2-hydroxycyclohexyl)-1-((6-(pyrrolidin-1-yl)pyridin-3-yl)methyl)-1H-indole-3-carboxamide] | 214 | 751 |  |  |
| Cn1cc(-c2ccc(Cn3cc(C(=O)N[C@H]4CCCC[C@@H]4O)c4c(F)c(F)c(F)c(F)c43)c(F)c2)cn1 [Example 26, 4,5,6,7-Tetrafluoro-1-(2-fluoro-4-(1-methyl-1H-pyrazol-4-yl)benzyl)-N-((1S,2S)-2-hydroxycyclohexyl)-1H-indole-3-carboxamide] | 80.6 | 201 |  |  |
| O=C(N[C@H]1CCCC[C@@H]1O)c1cn(Cc2ccccc2)c2cccc(F)c12 [Example 47, 1-benzyl-4-fluoro-N-((1S,2S)-2-hydroxycyclohexyl)-1H-indole-3-carboxamide] |  |  | 118 | 393 |
| CNC(=O)c1ccc(Cn2cc(C(=O)NC3CCOCC3)c3c(F)cccc32)c(F)c1 [Example 164, 4-Fluoro-1-(2-fluoro-4-(methylcarbamoyl)benzyl)-N-(tetrahydro-2H-pyran-4-yl)-1H-indole-3-carboxamide] | 48 | 88 |  |  |
| Cn1cc(-c2ccc(Cn3cc(C(=O)N[C@@H]4CCOC[C@H]4O)c4c(F)cccc43)c(F)c2)cn1 (single isomer, unassigned) [Example 70, 4-Fluoro-1-(2-fluoro-4-(1-methyl-1H-pyrazol-4-yl)benzyl)-N-((3S,4R) or (3R,4S)-3-hydroxytetrahydro-2H-pyran-4-yl)-1H-indole-3-carboxamide] | 102 | 284 |  |  |
| CNC(=O)c1ccc(Cn2cc(C(=O)NC3CCOC(C)C3)c3c(F)cccc32)cc1 (stereo not shown) [Example 127, 4-fluoro-1-[[4-(methylcarbamoyl)phenyl]methyl]-N-(2-methyloxan-4-yl)indole-3-carboxamide] | 19 | 26 |  |  |
| CNC(=O)c1ccc(Cn2cc(CC(=O)N[C@H]3CCOC[C@@H]3O)c3c(F)cccc32)cc1 [Example 98, 4-((4-fluoro-3-(2-((3R,4S)-3-hydroxytetrahydro-2H-pyran-4-ylamino)-2-oxoethyl)-1H-indol-1-yl)methyl)-N-methylbenzamide] | 32 | 134 |  |  |
| Cn1cc(-c2ccc(Cn3cc(C(=O)N[C@@H]4CCCC(F)(F)[C@H]4O)c4c(F)cccc43)cc2)cn1 [Example 100, N-((1R,2S)-3,3-difluoro-2-hydroxycyclohexyl)-4-fluoro-1-(4-(1-methyl-1H-pyrazol-4-yl)benzyl)-1H-indole-3-carboxamide] | 4 | 15 |  |  |
| O=C(N[C@H]1CCOC[C@@H]1O)c1cn(CC2CCN(c3ccccn3)CC2)c2cccc(F)c12 [Example 136, 4-fluoro-N-((3R,4S)-3-hydroxytetrahydro-2H-pyran-4-yl)-1-((1-(pyridin-2-yl)piperidin-4-yl)methyl)-1H-indole-3-carboxamide] | 134 | 428 |  |  |
| Cn1cnc2cc(Cn3cc(C(=O)N[C@H]4CCCC[C@@H]4O)c4c(F)cccc43)ccc21 [Example 56, 4-fluoro-N-((1S,2S)-2-hydroxycyclohexyl)-1-((1-methyl-1H-benzo[d]yridine-5-yl)methyl)-1H-indole-3-carboxamide] |  |  | 136 | 285 |
| Cc1ccc(F)c2c(C(=O)NC3CCCOC3)cn(Cc3ccc(-c4cnn(C)c4)cc3)c12 (stereo not shown) [Example 48, 4-fluoro-7-methyl-1-(4-(1-methyl-1H-pyrazol-4-yl)benzyl)-N-(tetrahydro-2H-pyran-3-yl)-1H-indole-3-carboxamide] | 251 | 528 |  |  |
| CNC(=O)c1ccc(Cn2cc(C(=O)N[C@H]3CCCC[C@@H]3O)c3c(F)cccc32)cc1 [Example 59, 4-fluoro-N-((1S,2S)-2-hydroxycyclohexyl)-1-(4-(methylcarbamoyl)benzyl)-1H-indole-3-carboxamide] | 4.33 | 4.35 |  |  |
| Cn1cc(-c2ccc(Cn3cc(C(=O)NC4CCOCC4)c4c(F)cccc43)cc2)cn1 [Example 65, Fluoro-1-(4-(1-methyl-1H-pyrazol-4-yl)benzyl)-N-(tetrahydro-2H-pyran-4-yl)-1H-indole-3-carboxamide] | 32.4 | 59.9 |  |  |
| O=C(N[C@H]1CCCC[C@@H]1O)c1cn(Cc2ccc(-c3cnco3)cc2)c2cccc(F)c12 [Example 137, 4-fluoro-N-((1S,2S)-2-hydroxycyclohexyl)-1-(4-(oxazol-5-yl)benzyl)-1H-indole-3-carboxamide] | 9 | 34 |  |  |
| CNC(=O)c1ccc(Cn2cc(CC(=O)N[C@H]3CCCC[C@@H]3O)c3c(F)cccc32)cc1 [Example 99] | 54 | 195 |  |  |
| CNC(=O)c1ccc(Cn2cc(C(=O)NC3CCCC3)c3c(F)cccc32)cc1 [Example 113, N-cyclopentyl-4-fluoro-1-[[4-(methylcarbamoyl)phenyl]methyl]indole-3-carboxamide] | 34 | 77 |  |  |
| O=C(N[C@H]1CCCC[C@@H]1O)c1cn(CC2CCN(c3ccncn3)CC2)c2cccc(F)c12 [Example 143, 4-fluoro-N-((1S,2S)-2-hydroxycyclohexyl)-1-((1-(pyrimidin-4-yl)piperidin-4-yl)methyl)-1H-indole-3-carboxamide] | 409 | 1070 |  |  |
| O=C(N[C@H]1CCCC[C@@H]1O)c1cn(Cc2ccc3nccn3c2)c2cccc(F)c12 [Example 145, 4-fluoro-N-((1S,2S)-2-hydroxycyclohexyl)-1-(imidazo[1,2-a]pyridin-6-ylmethyl)-1H-indole-3-carboxamide] |  |  | 17 | 36 |

Source: patent US9708259B2 (Hoffmann-La Roche Inc., priority 2013, dated 2017)
